Experimental data: paper PMC6934184, “Selective DNA-PKcs inhibition extends the therapeutic index of localized radiotherapy and chemotherapy” (The Journal of Clinical Investigation, 2019)

Biological target: T1, RPS6KA2 (RSK3) (Homo sapiens, UniProt Q15349)
T1 construct: purchased Thermo Fisher Scientific (Life Technologies) SelectScreen
Experiment: SelectScreen Z'LYTE
Format: biochemical
In short: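 NU5455 was profiled across the SelectScreen Broad panel of kinase activity and binding assays. Z'LYTE reactions such as CSF1R ran at apparent Km ATP, while the Adapta CAMK1 assay used ATP listed as 10. Values are given as percent.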

T1 sequence (Q15349 whole entry): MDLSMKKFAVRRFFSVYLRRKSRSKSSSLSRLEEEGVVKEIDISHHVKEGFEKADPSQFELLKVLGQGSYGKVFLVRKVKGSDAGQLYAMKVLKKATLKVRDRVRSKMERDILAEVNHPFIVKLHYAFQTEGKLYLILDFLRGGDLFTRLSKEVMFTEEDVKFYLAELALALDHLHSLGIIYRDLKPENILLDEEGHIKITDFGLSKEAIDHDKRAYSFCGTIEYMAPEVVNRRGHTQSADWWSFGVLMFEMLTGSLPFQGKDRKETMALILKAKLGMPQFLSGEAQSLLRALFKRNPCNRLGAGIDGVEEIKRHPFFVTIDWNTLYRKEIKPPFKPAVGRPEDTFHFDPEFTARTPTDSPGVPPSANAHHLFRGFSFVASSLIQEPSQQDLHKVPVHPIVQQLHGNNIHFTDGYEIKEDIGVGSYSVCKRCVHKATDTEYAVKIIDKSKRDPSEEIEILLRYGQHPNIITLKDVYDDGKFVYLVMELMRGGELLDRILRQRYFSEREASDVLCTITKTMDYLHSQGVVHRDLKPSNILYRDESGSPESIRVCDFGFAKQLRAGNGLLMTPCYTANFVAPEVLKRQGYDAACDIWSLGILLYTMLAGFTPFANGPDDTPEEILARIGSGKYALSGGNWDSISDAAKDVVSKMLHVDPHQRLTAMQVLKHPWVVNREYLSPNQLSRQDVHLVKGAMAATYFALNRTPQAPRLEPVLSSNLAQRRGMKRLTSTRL

Work on `CN(C(=O)CN1CCOCC1)c1ccc2sc3c(-c4cccc5c(=O)cc(N6CC7CCC(C6)O7)oc45)cccc3c2c1` [NU5455] yielded an inhibition at 1 µM of 10.8%.
